Test results reported in PubChem BioAssay AID2743 (NMMLSC, 2010).
Values joined by “and” are separate entries in the source; they are usually repeats but may differ in a detail not shown here. Identical values can stand only once. Active and inactive are the calls of the source.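 The calls were made as follows: active = fitted half-maximal concentration for change in GFP expression of 33 µM or less; inactive = the rest.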

Experiment: concentration-dependent AGP1-GFP change, TOR pathway – cell-based, flow cytometry, S. cerevisiae, MLPCN hits, dose response (AID 2743)
Settings: S. cerevisiae AGP1-GFP strain, flow cytometry GFP, 3 h; at 33 µM (top of the series)

Compound: CC(Oc1ccc(Br)cc1)C(=O)Nc1nc(-c2ccccn2)cs1 (stereo not given)
- GFP fluorescence (kMESF): 46.5 kMESF (inactive)

Compound: CN(C)c1ccc(N=Cc2nc(-c3ccccc3)oc2OC(=O)c2cccc(Cl)c2)cc1
- GFP fluorescence (kMESF): 30.1 kMESF (inactive)

Compound: O=C(Nc1ccc(N2CCOCC2)cc1)C1CCN(S(=O)(=O)c2ccc3c(c2)OCCO3)CC1
- GFP fluorescence (kMESF): 34 kMESF (inactive)

Compound: Cc1cccc2c1NC(=O)/C2=C\C(=O)c1cccs1
- GFP fluorescence (kMESF): 43.9 kMESF (inactive)

Compound: Cc1ccc(/C=C2\SC(=S)N(CC3CCCO3)C2=O)o1 (stereo not given)
- GFP fluorescence (kMESF): 42 kMESF (inactive)

Compound: Cc1ccc(C2=NOC(=O)/C2=C\c2ccc(C)o2)cc1
- GFP fluorescence (kMESF): 32.4 kMESF (inactive)

Compound: O=C(/C=C/c1ccc(F)cc1)NC(=S)NNC(=O)c1cnccn1
- GFP fluorescence (kMESF): 35.8 kMESF (inactive)

Compound: COc1cc(NC(=O)c2ccc(C)cc2)ccc1NC(=O)c1cc2ccccc2o1
- GFP fluorescence (kMESF): 43.8 kMESF (inactive)

Compound: O=C1NC(=O)N(Cc2ccc(F)cc2)C(=O)/C1=C/c1cccs1
- GFP fluorescence (kMESF): 28.1 kMESF (inactive)

Compound: O=c1cc(CSc2ccc(Cl)cc2)nc(-c2ccccn2)[nH]1
- GFP fluorescence (kMESF): 25.7 kMESF (inactive)

Compound: Cc1ccc(O)c(N=Nc2nccs2)c1
- GFP fluorescence (kMESF): 30.4 kMESF (inactive)

Compound: CCOC(=O)COc1ccc2ccccc2c1/C=C/[N+](=O)[O-]
- GFP fluorescence (kMESF): 29.3 kMESF (inactive)

Compound: C/C(=N/NC(=O)c1ccc(C(C)(C)C)cc1)c1ccccn1
- GFP fluorescence (kMESF): 55.7 kMESF (inactive)

Compound: CCN(CC(=O)NC(C)(C)C)C(=O)COc1c(Cl)cc(Cl)c2ccc(C)nc12
- GFP fluorescence (kMESF): 35.5 kMESF (inactive)

Compound: CCc1ccc(C(=O)/C=C/c2ccc([N+](=O)[O-])o2)cc1
- GFP fluorescence (kMESF): 49.5 kMESF (inactive)

Compound: CCOC(=O)C1=C(O)c2ccccc2C(=O)/C1=C\c1ccc(C)cc1
- GFP fluorescence (kMESF): -4.85 kMESF (inactive)

Compound: Cc1cc(=O)oc2cc(Oc3ccc([N+](=O)[O-])cc3C(F)(F)F)ccc12
- GFP fluorescence (kMESF): 42.1 kMESF (inactive)

Compound: Cc1nn(C)c(C)c1N1C(=O)c2cccc3c(Br)ccc(c23)C1=O
- GFP fluorescence (kMESF): 40.8 kMESF (inactive)

Compound: O=C(Oc1cccc2cccnc12)c1ccc(Br)o1
- GFP fluorescence (kMESF): 38.2 kMESF (inactive)

Compound: COc1cc(N=c2ssnc2Cl)cc(OC)c1
- GFP fluorescence (kMESF): 38.8 kMESF (inactive)

Compound: O=C(c1ccc([N+](=O)[O-])o1)N1CCN(c2nc3c(F)cc(F)cc3s2)CC1
- GFP fluorescence (kMESF): 30.3 kMESF (inactive)

Compound: CN(C)c1ccc(N=Cc2nc(-c3ccccc3)oc2OC(=O)c2ccccc2)cc1
- GFP fluorescence (kMESF): 43 kMESF (inactive)

Compound: O=S(=O)(CCN(CCS(=O)(=O)C(F)(F)F)CC1CCCO1)C(F)(F)F (stereo not given)
- GFP fluorescence (kMESF): 35.8 kMESF (inactive)

Compound: Cc1ccc(C(=O)O)cc1N=Cc1cc(Br)cc(Br)c1O
- GFP fluorescence (kMESF): 27.3 kMESF (inactive)

Compound: O=C(/C=C/c1ccccc1)NC(=S)NNC(=O)Cc1cccs1
- GFP fluorescence (kMESF): 41.4 kMESF (inactive)

Compound: COc1ccc(OC)c(S(=O)(=O)ON2C(=O)c3ccccc3C2=O)c1
- GFP fluorescence (kMESF): 39.4 kMESF (inactive)

Compound: O=S(=O)(c1ccccc1)c1ccc(C(F)(F)F)cn1
- GFP fluorescence (kMESF): 43.8 kMESF (inactive)

Compound: CCc1nc2ccccc2c(=O)n1NC(=O)c1c(O)c2cccc3c2n(c1=O)CCC3
- GFP fluorescence (kMESF): 18.3 kMESF (inactive)

Compound: O=c1c(-c2ccc(Cl)cc2)[n+]([O-])c2ccccc2n1O
- GFP fluorescence (kMESF): 38.1 kMESF (inactive)

Compound: CC(C)C(=O)NC(c1cccs1)c1cc([N+](=O)[O-])c2cccnc2c1O (stereo not given)
- GFP fluorescence (kMESF): 38.9 kMESF (inactive)

Compound: COc1ccccc1C(=O)NNC(=S)NC(=O)c1cccs1
- GFP fluorescence (kMESF): 48 kMESF (inactive)

Compound: O=C(Nc1nc(-c2ccccn2)cs1)C1COc2ccccc2O1 (stereo not given)
- GFP fluorescence (kMESF): 26.3 kMESF (inactive)

Compound: CC(C)(C)C1C/C(=C/c2ccccn2)C(=O)/C(=C/c2ccccn2)C1 (stereo not given)
- GFP fluorescence (kMESF): 32.6 kMESF (inactive)

Compound: CCOc1ccc(N2C(=O)/C(=C\c3cccs3)C(=O)NC2=S)cc1
- GFP fluorescence (kMESF): 27.9 kMESF (inactive)

Compound: O=C1c2ccccc2C(=O)N1OS(=O)(=O)c1ccc(F)cc1
- GFP fluorescence (kMESF): 27 kMESF (inactive)

Compound: CCc1ccc2c(c1)/C(=C/C(=O)c1cccs1)C(=O)N2
- GFP fluorescence (kMESF): 42.4 kMESF (inactive)

Compound: CCOc1cc(C=C2C(=O)c3ccccc3C2=O)ccc1OCC(=O)Nc1ccc(C)cc1
- GFP fluorescence (kMESF): 36.1 kMESF (inactive)

Compound: O=C(CSC1=NS(=O)(=O)c2ccccc21)Nc1ccccc1
- GFP fluorescence (kMESF): 27.1 kMESF (inactive)

Compound: CC(C)Oc1ccc(C(=O)/C=C2/C(=O)Nc3ccccc32)cc1
- GFP fluorescence (kMESF): 46.3 kMESF (inactive)

Compound: CCN(CC(=O)Nc1cc(S(=O)(=O)N2CCOCC2)ccc1Cl)Cc1ccccc1
- GFP fluorescence (kMESF): 37.6 kMESF (inactive)

Compound: Cc1ccc(C(=O)NNC(=S)NC(=O)COc2ccccc2)cc1
- GFP fluorescence (kMESF): 39.8 kMESF (inactive)

Compound: COc1ccc(C(=O)/C=C2/C(=O)Nc3ccccc32)cc1
- GFP fluorescence (kMESF): 44.8 kMESF (inactive)

Compound: COc1cc(N=c2ssnc2Cl)c(OC)cc1Cl
- GFP fluorescence (kMESF): 27.6 kMESF (inactive) and 26.1 kMESF (inactive)

Compound: O=C(OCn1ncc(Br)c(Br)c1=O)c1ccc(F)cc1
- GFP fluorescence (kMESF): 43.7 kMESF (inactive)

Compound: O=C(OCn1ncc(Br)c(Br)c1=O)c1ccccc1Cl
- GFP fluorescence (kMESF): 46 kMESF (inactive)

Compound: N/C(Cc1ccc(Cl)cc1)=N\OC(=O)c1cccc2ccccc12
- GFP fluorescence (kMESF): 33 kMESF (inactive)

Compound: N/C(Cc1ccc(Cl)cc1Cl)=N\OC(=O)c1ccccc1
- GFP fluorescence (kMESF): 29.1 kMESF (inactive)

Compound: CCN(CC)c1ccc2cc(-c3nc(-c4ccc(OC)cc4)cs3)c(=O)oc2c1
- GFP fluorescence (kMESF): 40.6 kMESF (inactive)

Compound: CCCc1nnc(NC(=O)c2c(O)c3cccc4c3n(c2=O)CCC4)s1
- GFP fluorescence (kMESF): 2.53 kMESF (inactive)

Compound: CCn1c(=O)c(C(=O)Nc2nc3ccccc3[nH]2)c(O)c2ccccc21
- GFP fluorescence (kMESF): 12.8 kMESF (inactive)

Compound: C=CCN1C(=O)/C(=C/c2ccc(-c3ccc(F)cc3)o2)SC1=S
- GFP fluorescence (kMESF): 35.3 kMESF (inactive)

Compound: O=[N+]([O-])c1cc(O)c2ncccc2c1
- GFP fluorescence (kMESF): 42.7 kMESF (inactive)

Compound: CC(C)[C@]1(c2ccccc2)ON(c2ccccc2C(F)(F)F)C1=O
- GFP fluorescence (kMESF): 34.2 kMESF (inactive)

Compound: COc1ccc(CCNC2=C(Cl)C(=O)N(CCc3ccccc3)C2=O)cc1OC
- GFP fluorescence (kMESF): 42 kMESF (inactive)

Compound: Cc1cc(O)c(C(=O)/C=C/c2ccc(Cl)cc2)c(=O)o1
- GFP fluorescence (kMESF): 40.1 kMESF (inactive)

Compound: CCCCc1ccc(/C=C2/C(=O)ON=C2c2ccccc2)s1
- GFP fluorescence (kMESF): 38.4 kMESF (inactive)

Compound: COc1cccc(C(=O)Nc2nnc(-c3ccc(Cl)cc3)o2)c1
- GFP fluorescence (kMESF): 34.6 kMESF (inactive)

Compound: CCOC(=O)C(C(=O)OCC)C(C(=O)OCC)N1CCOCC1 (stereo not given)
- GFP fluorescence (kMESF): 41 kMESF (inactive)

Compound: COc1ccc(NC(=O)/C(Cl)=C(/Cl)S(=O)Cc2ccccc2)cn1 (stereo not given)
- GFP fluorescence (kMESF): 38.3 kMESF (inactive)

Compound: C#CCOCCOCCOCCNc1nc(N2CCN(C(=O)CCCCCCCCCCNC(=O)[C@H](CCCCN)n3cc(CCO)nn3)CC2)nc(N2CCN(C(=O)CCCCCCCCCCNC(=O)[C@H](CCCN=C(N)N)n3cc(C[C@@H](C)CC)nn3)CC2)n1
- GFP fluorescence (kMESF): 45.1 kMESF (inactive)

Compound: CCC(=O)Oc1oc(-c2ccccc2)nc1C=Nc1ccccc1OC
- GFP fluorescence (kMESF): 42.9 kMESF (inactive)

Compound: O=C1c2ccccc2C(=O)N1OS(=O)(=O)c1ccccc1
- GFP fluorescence (kMESF): 29.6 kMESF (inactive)

Compound: Nc1ccccc1SC(C[N+](=O)[O-])c1ccccc1 (stereo not given)
- GFP fluorescence (kMESF): 39.9 kMESF (inactive)

Compound: O=C(Oc1c(Cl)cc(Cl)c2cccnc12)c1cccs1
- GFP fluorescence (kMESF): 25.9 kMESF (inactive)

Compound: Cc1[nH]c(-c2ccccn2)nc(=S)c1Cl
- GFP fluorescence (kMESF): 51 kMESF (inactive)

Compound: Cc1cc(C)c(S(=O)(=O)ON2C(=O)c3ccccc3C2=O)cc1C
- GFP fluorescence (kMESF): 42.8 kMESF (inactive)

Compound: COc1ccc(/C=C/C(=O)C2C(=O)C=C(C)OC2=O)cc1O (stereo not given)
- GFP fluorescence (kMESF): 43 kMESF (inactive)

Compound: Cc1ccc(C)c(/C=C/C(=O)c2ccccc(=O)c2O)c1
- GFP fluorescence (kMESF): 10.5 kMESF (inactive)

Compound: CCn1c(/C=C/c2ccc([N+](=O)[O-])o2)nc2ccccc2c1=O
- GFP fluorescence (kMESF): -51 kMESF (inactive)

Compound: Cc1ccc(NC(=O)c2cc(N3C(=O)C=CC3=O)ccc2N2CCOCC2)cc1Cl
- GFP fluorescence (kMESF): 36.2 kMESF (inactive)

Compound: Cc1cccc(OCCN2CSC(=S)N(C)C2)c1
- GFP fluorescence (kMESF): 46.6 kMESF (inactive)

Compound: O=[N+]([O-])c1ccc(O)c(/C=N/Nc2ccccn2)c1
- GFP fluorescence (kMESF): 30.3 kMESF (inactive)

Compound: O=C(NC(=S)Nc1ccc2oc(=O)ccc2c1)c1cccc(Cl)c1
- GFP fluorescence (kMESF): 29.8 kMESF (inactive)

Compound: O=C(NCc1ccc2c(c1)OCO2)c1nc(S(=O)(=O)Cc2ccccc2)ncc1Cl
- GFP fluorescence (kMESF): 40.9 kMESF (inactive)

Compound: Oc1ccc(Br)cc1/C=N/Nc1ccccn1
- GFP fluorescence (kMESF): 36.6 kMESF (inactive)

Compound: O=C1C(=O)c2ccccc2-c2ccccc21
- GFP fluorescence (kMESF): 17.5 kMESF (inactive)

Compound: NC(=O)COc1ccc(C(=O)/C=C2/C(=O)Nc3ccccc32)cc1
- GFP fluorescence (kMESF): 46.2 kMESF (inactive)

Compound: CCc1ccc(OCC(=O)NNC(=S)NC(=O)C2CC2)c(Br)c1
- GFP fluorescence (kMESF): 45.2 kMESF (inactive)

Compound: CC1=C/C(=N\OS(=O)(=O)c2ccccc2)C(C)=CC1=O
- GFP fluorescence (kMESF): 34.7 kMESF (inactive)

Compound: COc1ccc(N=Cc2nc(-c3ccccc3)oc2OC(C)=O)cc1
- GFP fluorescence (kMESF): 35 kMESF (inactive)

Compound: O=S(=O)(/N=C(/Sc1ccccc1)c1ccccc1)c1ccccc1
- GFP fluorescence (kMESF): 41 kMESF (inactive)

Compound: O=[N+]([O-])c1cc(Cl)cc(/C=N\Nc2ccccn2)c1O
- GFP fluorescence (kMESF): 30.3 kMESF (inactive)

Compound: CCOC(=O)CSC1=NC(=O)/C(=C/c2ccc(Br)cc2)S1
- GFP fluorescence (kMESF): 37 kMESF (inactive)

Compound: COc1ccc(N2C(=O)C(Cl)=C(Nc3c(C)n(C)n(-c4ccccc4)c3=O)C2=O)cc1
- GFP fluorescence (kMESF): 36.2 kMESF (inactive)

Compound: Oc1c(I)cc(I)c2cccnc12
- GFP fluorescence (kMESF): 24.6 kMESF (inactive)

Compound: Cc1ccc(S(=O)(=O)N2CCCC2C(=O)NCc2ccncc2)cc1 (stereo not given)
- GFP fluorescence (kMESF): 32.1 kMESF (inactive)

Compound: O=C(Nc1nc2ccc(F)cc2s1)c1ccccn1
- GFP fluorescence (kMESF): 41.4 kMESF (inactive)

Compound: CC(C)(C)C(=O)NC(=S)NNC(=O)c1ccc(-c2ccccc2)cc1
- GFP fluorescence (kMESF): 44.1 kMESF (inactive)

Compound: O=C1C=CC(=O)N1c1ccc(O)cc1
- GFP fluorescence (kMESF): 48.3 kMESF (inactive)

Compound: O=[N+]([O-])c1ccc(Sc2nc3ccccc3o2)c([N+](=O)[O-])c1
- GFP fluorescence (kMESF): 37.2 kMESF (inactive)
